Experiments:
M059K Glioma cells = assay: Cell Death ELISAplus, Aβ-induced apoptosis (fragmented nucleosomes); format: cell-based, human; settings: for apoptosis in response to Aβ: Example 2, glial cells, FIG. 17C
Experimental: The extent of apoptosis caused by Aβ in the presence or absence of MTZ was assessed by quantitation of nucleosome formation using Cell Death ELISA^plus (Roche Applied Science, Indianapolis, Ind.). Briefly, after incubation with the peptides, plates were centrifuged in a Beckman J-6B centrifuge (10 min; 1,000 rpm), cells lysed, and DNA-histone complexes (nucleosomes) quantitated by Cell Death ELISA, as previously described (Fossati et al., 2010).

[1] = tested on: SH-SY5Y and D3 cell cultures; assay: Intracellular pH measurement (pHrodo); format: cell-based, human; settings: MTZ 100 and 300 μM, AZT 30 and 100 μM; 3 and 12 hours; with and without peptide
Experimental: Cells were plated on 96-wells microplate fluorescence microtiter (ThermoFisher, Waltham, Mass., US). The day after, cells were treated with the different drugs and/or peptides. After this, intracellular pH measurement was performed by using the pHrodo red AM kit, following the indications provided by the manufacturer.

TgSwDI mice [2] = assay: Contextual fear conditioning; format: in vivo, mouse; settings: short-term treatment (3 months)
D3 cells = assay: Mitochondrial and cytoplasmic calcium assay (Rhod-2 AM, Fluo-4 AM); format: cell-based, human; settings: highest doses; 45 minutes
Experimental: This assay was performed as published in [60]. Briefly, cells were plated on 25 mm optical borosilicate poly-L-lysine-coated sterile glass covers, (ThermoFisher, Waltham, Mass., US) at a 70% confluence. 24 hours later, cells were loaded with 5 μM Rhod-2 AM or 2.5 μM Fluo-4 AM on HBSS for 45 minutes. Then, cells were washed twice with HBSS and incubated for another additional 15 minutes on fresh HBSS, without Rhod-2 AM or Fluo-4 AM. After that, HBSS was replaced again by fresh HBSS, glasses were mounted on microscopy chambers and experiments were conducted, after adding the pre-aggregated peptides and/or the drugs. Cells were mounted on Sykes-Moores chambers (BellCo, Vineland, N.J., US) and imaged every 15 seconds for 45 min, at a 20× magnification, using a Nikon fluorescent microscope (Chiyoda, Tokyo, Japan). Images were processed using NIS-Elements and ImageJ software. Due to the rapidity of this experiment, the peptide was pre-aggregated as described above to obtain oligomers before being added to the cells.

TgSwDI mice [3] = assay: Barnes Maze spatial memory testing; format: in vivo, mouse; settings: for behavioral phenotypes (Barnes maze): given with diet; for distance traveled, probe trial / mistakes, probe trial: in the diet for 8 months, 15-20 mg/kg/day; for distance traveled, probe trial / mistakes, probe trial / distance traveled in trial 10 (last trial): tested at 15-16 months; for distance traveled in trial 10 (last trial): treated for 8 months
Source text: The Barnes Maze was used to provide an index of spatial learning and memory. The task capitalizes on the motivation of mice to seek refuge from loud, open and brightly-lit spaces. Mice were trained across a series of trials to successfully navigate to a hidden escape chamber using information provided by distal spatial cues. The Barnes Maze consists of a relatively large (36″ in diameter), circular platform with a beige textured surface that is elevated 36″ from the floor (San Diego Instruments, San Diego USA). The platform has twenty 2″ diameter holes that are equally spaced around the periphery of the platform (1″ from the edge). A grey plastic escape box (˜10 cm×8.5 cm×4 cm) is located under only one of the holes, the location of which is constant for each subject but variable across subjects and counterbalanced across groups. The surface of the Barnes maze is brightly-lit (500-600 lux), illuminated by an overhead lamp (60-100 W) placed approximated 30″ above the center of the platform. Visible distal cues were placed around the room and remained constant throughout the testing period. An overhead video camera and specialized software (Noldus Ethovision 11.5) was used to track the locomotor trajectories of the mice. Mice were trained for six consecutive daily testing sessions (2 trials/day for 5 days, and probe test on day 6).
On each testing day, mice were brought to the testing room for a minimum of 30 mins prior to testing in order to acclimate to transport and testing room conditions. On the first day of testing, each mouse was gently removed from its home cage by the base of its tail and placed in the center of the platform and kept within an inverted 500 ml beaker for 1 min. A white noise generator (San Diego Instruments) was turned on (˜90-100 dB) when the mouse was placed onto the maze. After the 1-min period, the beaker was slowly moved (over the course of 1 min) to the target hole with the mouse freely moving but confined underneath. Care was taken not to catch the tail or paws of the mouse while moving the beaker. The mouse was then permitted, or was gently guided by the experimenter using the beaker, to enter the escape box and was given 2 min inside before being transported back to its home cage within the escape box. The white noise was turned off as soon as the mouse entered the escape box. The platform and start box were cleaned thoroughly with 30% ethanol and allowed to dry fully before each trial. To ensure that distal spatial cues rather than local intramaze cues were being used to help guide navigation to the escape box, the maze was rotated after each training trial and the escape box re-positioned to always be in the identical spatial location within the room.
After the initial beaker trial, each mouse was given 2 training trials per day. During training trials, mice were placed in the center of the platform within an plastic 6″l×6″w×8″h start box. The white noise generator was turned on and, after 10-15 s delay, the start box was lifted. The mouse was permitted a maximum of 3 min to find the designated hole and escape box. When a mouse entered the escape box the white noise was turned off and they were given approximately 1 additional min inside the box before being transferred back to the home cage. […] A 90-120 min inter-trial interval separated the two training trials on each daily session.
Twenty four hours after (Day 6) the fifth training session, a 3-min probe trial was given, conducted identically as the training trials but where the escape box had been removed. This probe was used to examine search behavior patterns and to help control for possible strategies that use local cues from the escape box.
Spatial learning and memory was inferred based on the latency, distance and number of errors (other holes visited) that was required for the mouse to successfully navigate to the escape box. […]

## CC(=O)Nc1nnc(S(N)(=O)=O)s1 [ATZ, acetazolamide]
M059K Glioma cells
  apoptosis in response to Aβ: prevented
[1]
  intracellular pH values: did not show any significant changes
TgSwDI mice [2]
  increase of freezing in contextual fear conditioning: normalizing effect
D3 cells
  Aβ-induced decrease in mitochondrial and cytoplasmic Ca2+: counteract the effect exerted by the peptide
TgSwDI mice [3]
  behavioral phenotypes (Barnes maze): ameliorate behavioral phenotypes
  distance traveled, probe trial: not significantly higher than WT mice
  mistakes, probe trial: not significantly higher than WT mice
  distance traveled in trial 10 (last trial): not significantly higher than WT mice

## CC(=O)/N=c1/sc(S(N)(=O)=O)nn1C [MTZ, methazolamide]
M059K Glioma cells; 100 μM MTZ, Aβ42 10 μM or Aβ40-Q22 50 μM, 3 days
  apoptotic phenotype caused by the Aβ peptides: completely reverted the apoptotic phenotype
M059K Glioma cells; 300 μM MTZ, Aβ42 10 μM or Aβ40-Q22 50 μM, 3 days
  Aβ-mediated increase in fragmented nucleosomes: completely prevented
M059K Glioma cells
  apoptosis in response to Aβ: prevented
[1]
  intracellular pH values: did not show any significant changes
TgSwDI mice [2]
  increase of freezing in contextual fear conditioning: normalizing effect
D3 cells
  Aβ-induced decrease in mitochondrial and cytoplasmic Ca2+: counteract the effect exerted by the peptide
TgSwDI mice [3]
  behavioral phenotypes (Barnes maze): ameliorate behavioral phenotypes
  distance traveled, probe trial: not significantly higher than WT mice
  mistakes, probe trial: not significantly higher than WT mice
  distance traveled in trial 10 (last trial): not significantly higher than WT mice

Reference: US10780094B2, “Use of carbonic anhydrase inhibitors for treatment of neurological and psychiatric disorders” (New York University, priority 2016, dated 2020)
